System: erbB2 phosphorylation in MCF7-derived cell line (MCF7 유래의 세포주에서 erbB2의 인산화)
Assay: Test (c): clone 24 phospho-erbB2 cell assay
Assay type: cell-based
Settings: Homo sapiens, clone 24 cells (MCF7-derived, overexpressing full-length erbB2), read-out: IC50 test (c): inhibition of erbB2 tyrosine kinase protein phosphorylation

IC50 [nM]	Compound
4	CS(=O)(=O)N1CCC(COc2ccc3ncnc(Nc4ccc(OCc5ccccn5)c(Cl)c4)c3c2)C1 (stereo not drawn) [실시예 14, N-[3-클로로-4-(피리딘-2-일메톡시)페닐]-6-{[1-(메틸술포닐)피롤리딘-3-일]메톡시}퀴나졸린-4-아민]
210	CN(C)CC(=O)N1CCC(Oc2ccc3ncnc(Nc4ccc(OCc5ccccn5)c(Cl)c4)c3c2)CC1 [실시예 8, N-[3-클로로-4-(피리딘-2-일메톡시)페닐]-6-({1-[(디메틸아미노)아세틸]피페리딘-4-일}옥시)퀴나졸린-4-아민]
150	CN(C)CC(=O)N1CCC(Oc2ccc3ncnc(Nc4ccc(OCc5cnccn5)c(Cl)c4)c3c2)CC1 [실시예 9, N-[3-클로로-4-(피라진-2-일메톡시)페닐]-6-({1-[(디메틸아미노)아세틸]피페리딘-4-일}옥시)퀴나졸린-4-아민]

Reference: patent KR20070023630A, “티로신 키나제 억제제로서의 퀴나졸린 유도체” (아스트라제네카 아베, priority 2003, dated 2005)
